Reference: PMC11840788, “3,3′-Diindolylmethane (DIM): A Molecular Scaffold for Inhibition of WWP1 and WWP2, Members of the NEDD4 Family HECT E3 Ligases” (ACS Omega, 2025)
pIC50: −log10 of the molar value. Where “and” joins values, the source holds several entries; their conditions need not be identical. Identical values can stand only once.

What was measured:
[1] = molecular target: T1, WWP1 (His-tagged WWP1-L34H) (Homo sapiens, UniProt Q9H0M0); test: in vitro autoubiquitination assay (single shot and dose dependency), WWP1; type: biochemical
T1 construct: WWP1- 2,3-linker-WW3-WW4-HECT (WWP1-L34H); made in house; host or cells: E. coli BL21-CodonPlus RP (plasmid pET32a-WWP1-L34H, gift of Dr Wenyu Wen)
Protocol: (§1) A single shot in vitro autoubiquitination assay was performed for I3C, DIM and each of the derivatives against WWP1 and WWP2 using a compound concentration of 1 mM (1% DMSO) (SI Figure S3). […] These active compounds were then subjected to a detailed dose dependency analysis leading to IC50 values. This strategy has previously been employed to screen other WWP1/WWP2 small molecule inhibitors as well as used to assess I3C inhibition toward NEDD4-1.[29],[32] In this way, compounds displaying a relative activity (RA) of less than 50% in the single shot assay were further screened for dose-dependency using a logarithmic concentration range from 10 nM to 1 mM (1% DMSO) (SI Figure S4). […] These were confirmed by counter assays to remove compounds possibly interacting with other enzymes in the assay or interfering with the assay directly (SI Table S1).
(§2) Cell lysate containing His-tagged WWP1-L34H or GST-tagged WWP2-FL proteins were incubated on either 96-well Clear Pierce glutathione or nickel-coated plates for 1 h. Reaction mixtures of either 3 ng/well GST-Uba1 and 15 ng/well UbcH7 or 10 ng/well His-Uba1 and 150 ng/well His-UbcH7 were incubated together in 25 mM Tris pH 8.0, 100 mM NaCl, 4 mM MgCl2 containing 60 ng/well FLAG-ubiquitin and 1.25 mM ATP for 40 min. A prior 1% BSA plate blocking step is required for nickel-coated plates. After plate washing, 2 μL of the compound was added at the desired concentration (1% DMSO) followed by 18 μL of the reaction mixture. This was then incubated for 2 h with 0 and 100% controls before 100 μL of anti-FLAG M2-Peroxidase HRP (1:10,000 PBST) was added to each well and incubated for 1 h. Finally, 100 μL of 1 × TMB substrate solution (Invitrogen) was added to each well and incubated for up to 10 min until sufficient blue color change was observed. To stop the reaction, 100 μL of 1 M HCl was added. For the counter assay, 3 ng/well GST-Uba1 and 200 ng/well UbcH7 were incubated with the other reaction mixture components for 1 h before incubating onto plates for a further 1 h. All other steps were followed. The plates were washed three times with PBST (and 15 mM Imidazole) between each step. Quantification was measured by absorbance read at 450 nm. All assay optimizations were as previously reported.[32] IC50 nonlinear regression curves were calculated in GraphPad v10.2 (Prism). […]
(§3) Auto-ubiquitination Assay
(§4) Cell lysate containing His-tagged WWP1-L34H or GST-tagged WWP2-FL proteins were incubated on either 96-well Clear Pierce glutathione 2 or nickel-coated plates for 1 hour. Reaction mixtures of either 3 ng/well GST-Uba1 and 15 ng/well UbcH7 or 10 ng/well His-Uba1 and 150 ng/well His-UbcH7 were incubated together in 25 mM Tris pH 8.0, 100 mM NaCl, 4 mM MgCl2 containing 60 ng/well FLAG-ubiquitin and 1.25 mM ATP for 40 minutes. A prior 1 % BSA plate blocking step is required for nickel-coated plates. After plate washing, 2 μL of the compound was added at the desired concentration (1 % DMSO) followed by 18 μL of the reaction mixture. This was then incubated for 2 hours with 0% and 100% controls before 100 μL of anti-FLAG M2-Peroxidase HRP (1: 10,000 PBST) was added to each well and incubated for 1 hour.
(§5) Finally, 100 μL of 1 × TMB substrate solution (Invitrogen) was added to each well and […]
(§6) incubated for up to 10 minutes until sufficient blue colour change was observed. To stop the reaction, 100 μL of 1 M HCl was added. For the counter assay, 3 ng/well GST-Uba1 and 200 ng/well UbcH7 were incubated with the other reaction mixture components for 1 hour before incubating onto plates for a further 1 hour. All other steps were followed.
(§7) The plates were washed three times with PBST (and 15 mM Imidazole) between each step. Quantification was measured by absorbance read at 450 nm. All assay optimisations have been previously reported by Watt and colleagues3.
(§8) Relative activity (RA) was determined by comparing the autoubiquitination of the WWP ligases in the presence of each compound, i.e TMB absorbance (450 nm), to the […]

[2] = molecular target: T2, WWP2 (GST-tagged WWP2-FL) (Homo sapiens, UniProt O00308); test: in vitro autoubiquitination assay (single shot and dose dependency), WWP2; type: biochemical; conditions: single shot, compound at 1 mM (1% DMSO), standardized to 0 and 100% controls
T2 construct: Full- length WWP2 (WWP2-FL); made in house; host or cells: E. coli BL21-CodonPlus RP (plasmid pGEX2T-WWP2-FL, Dr Andrew Chantry's Lab)
Protocol: as §1, §2, §3, §4, §5, §6, §7, §8

T1 sequence (Q9H0M0 415-922, stated change not applied): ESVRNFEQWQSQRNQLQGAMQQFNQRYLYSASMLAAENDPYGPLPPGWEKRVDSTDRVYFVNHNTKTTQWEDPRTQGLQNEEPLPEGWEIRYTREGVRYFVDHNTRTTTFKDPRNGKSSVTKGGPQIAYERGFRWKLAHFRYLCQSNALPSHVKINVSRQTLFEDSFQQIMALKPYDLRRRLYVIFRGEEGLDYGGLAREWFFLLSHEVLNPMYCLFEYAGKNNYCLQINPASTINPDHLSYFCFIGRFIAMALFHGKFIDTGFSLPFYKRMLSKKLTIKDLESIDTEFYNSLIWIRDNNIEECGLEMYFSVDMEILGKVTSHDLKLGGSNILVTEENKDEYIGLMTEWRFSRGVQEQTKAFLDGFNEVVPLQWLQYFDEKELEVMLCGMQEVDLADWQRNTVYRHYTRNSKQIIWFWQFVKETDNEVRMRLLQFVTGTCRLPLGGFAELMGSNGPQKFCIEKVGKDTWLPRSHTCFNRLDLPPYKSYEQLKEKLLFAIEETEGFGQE
T2 sequence (O00308 whole entry): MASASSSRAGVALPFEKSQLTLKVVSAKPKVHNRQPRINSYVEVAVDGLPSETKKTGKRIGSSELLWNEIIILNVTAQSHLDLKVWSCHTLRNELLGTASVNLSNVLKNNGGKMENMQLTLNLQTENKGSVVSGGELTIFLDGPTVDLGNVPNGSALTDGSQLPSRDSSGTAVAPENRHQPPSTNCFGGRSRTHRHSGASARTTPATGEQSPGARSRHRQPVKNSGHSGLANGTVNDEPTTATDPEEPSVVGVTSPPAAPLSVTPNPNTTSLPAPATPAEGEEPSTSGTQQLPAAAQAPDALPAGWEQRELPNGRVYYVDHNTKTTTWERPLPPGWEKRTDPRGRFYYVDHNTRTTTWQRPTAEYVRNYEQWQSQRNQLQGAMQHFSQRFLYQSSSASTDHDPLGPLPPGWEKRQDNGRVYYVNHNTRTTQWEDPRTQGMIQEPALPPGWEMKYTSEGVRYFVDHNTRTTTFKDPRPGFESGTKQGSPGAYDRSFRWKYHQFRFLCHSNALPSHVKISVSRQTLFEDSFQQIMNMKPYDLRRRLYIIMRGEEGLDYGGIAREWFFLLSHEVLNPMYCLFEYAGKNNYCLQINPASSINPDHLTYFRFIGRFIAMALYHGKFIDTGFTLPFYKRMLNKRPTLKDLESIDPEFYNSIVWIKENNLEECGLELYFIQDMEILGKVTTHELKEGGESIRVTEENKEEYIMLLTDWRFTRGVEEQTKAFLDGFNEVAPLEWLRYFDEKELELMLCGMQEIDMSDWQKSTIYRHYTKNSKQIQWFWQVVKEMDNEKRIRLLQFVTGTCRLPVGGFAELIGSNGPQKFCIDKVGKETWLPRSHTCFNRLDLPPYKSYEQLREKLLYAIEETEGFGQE

inhibition of WWP1 (in words) ([1]; autoubiquitination assay): displayed inhibition | pIC50 ([1]; nonlinear regression of RA against log concentration, 1 mM to 10 nM, 1% DMSO): ~3.00 and 3.00 | WWP1 RA (%) relative activity ([1]; single shot, compound at 1 mM (1% DMSO), standardized to 0 and 100% controls): 48.2 ± 8.6% and 48.2% | WWP2 RA (%) relative activity [2]: 88.0 ± 7.5% and 88.0%
Compound: OCc1c[nH]c2ccccc12 [Compound I3C, Indole-3-carbinol, reference compound]
